These results are taken from article PMC7956560, “New 3-Aryl-2-(2-thienyl)acrylonitriles with High Activity Against Hepatoma Cells” (International Journal of Molecular Sciences, 2021).

The structures appear in SMILES notation.

Data set [1] relates to human HepG2 hepatoblastoma cells. Description: Growth inhibition, crystal violet staining, HepG2. To be noted: 48 h incubation, mean ± SD, read-out: Anti-proliferative activity IC50, HepG2. The format is cell-based. The protocol:
(§1) The well-differentiated p53 wild-type human hepatoblastoma cell line HepG2 (ATCC# 8065) and the highly differentiated p53 mutated human hepatocellular carcinoma cell line Huh-7 (JCRB#0403) were grown in RPMI 1640 medium supplemented with 10% fetal bovine serum and 100 U/mL penicillin and […] streptomycin. Murine AML-12 hepatocytes were obtained from ATCC (CRL-2254) and grown in DMEM/F-12 Glutamax medium supplemented with 10% fetal bovine serum, 10 µg/mL insulin, 5.5 µg/mL transferrin, 5 ng/mL selenium (Gibco ITS-G 100X) and 40 ng/mL dexamethasone (Sigma-Aldrich). All cell lines were incubated in a 37 °C, 5% CO2, 95% humidified atmosphere.
(§2) Treatment-induced changes in cell number were evaluated by crystal violet staining, as previously described. Briefly, 1.500 cells per well were seeded in 96-well plates for 24 h at 37 °C, 5% CO2. For the experiments with HepG2 and Huh-7 cell lines, cells were incubated with rising concentrations (0–20 µM) of the new compounds (1a–1o) for 48 h. AML12-cells were treated with compounds 1a, 1b, 1c, 1e, 1i and 1j for 48 h and at concentrations ranging from 0.5–64 µM. Thereafter, the cells were fixed with 1% glutaraldehyde and stained with 0.1% crystal violet (Sigma-Aldrich). The unbound dye was removed by rinsing with water. Bound crystal violet was solubilized with 0.2% Triton X-100 (Sigma-Aldrich). Light extinction of crystal violet, which increases linearly with cell number, was analyzed at 570 nm using an ELISA-Reader (Dynex Technologies, Denkendorf, Germany). All experiments were carried out in duplicate or triplicate.

The next data set concerns human Huh-7 HCC cells. Kind of data set: Growth inhibition, crystal violet staining, Huh-7. The format is cell-based. Particulars: 48 h incubation, mean ± SD, read-out: Anti-proliferative activity IC50, Huh-7. The protocol:
as §1, §2

The subject of data set [2] is non-malignant murine AML-12 hepatocytes. Description: Growth inhibition, crystal violet staining, AML-12. To be noted: for IC50 against AML-12 hepatocytes relative to hepatoma cells: AML-12 vs hepatoma cells (HepG2, Huh-7), 48 h; for IC50: Mus musculus, AML12, 48 h incubation, mean ± SD, read-out: Anti-proliferative activity IC50, AML-12. In kind it is cell-based. The protocol:
as §1, §2

In data set [3] the test system is HepG2 cells. Kind of data set: Colony-formation assay. The format is cell-based, human. To be noted: 1, 5, 10 µM, 14 days. The protocol:
HepG2 cells were seeded in 6-well plates at a density of 300 cells/well and allowed to attach overnight. […] Then, the plates were washed twice with PBS, fixed with 4% formaldehyde for 1 h, and stained with 0.5% crystal violet for 3 min. Excessive crystal violet was washed out and the colonies were counted under the microscope. A colony was defined as a cell aggregate with 50 or more cells. Representative images were taken with a kappa digital camera system (Kappa Optronics GmbH, Germany). A total of n = 3 experiments were performed, and significance was tested by one-way ANOVA assays.

Data set [4] has as its system HepG2 cells. Description: LDH release assay (unspecific cytotoxicity). The format is cell-based, human. Particulars: HepG2, 0.5 and 10 µM, 12 or 24 h. The protocol: Unspecific cytotoxicity induced by treatment with 0.5 µM and 10 µM of 1a, 1b, 1c and sorafenib (LC Laboratories, Woburn, MA, USA) was determined by measuring the release of lactate dehydrogenase (LDH) from HepG2 cells into the supernatant after 12 and 24 h (Cytotoxicity Detection KitPLUS LDH, Roche Diagnostics GmbH, Mannheim, Germany). The supernatant of treated samples was collected, and adherent non-treated cells were lysed with 2% Triton X-100 for 10 min to determine the maximum LDH release. All samples were mixed with catalyst and dye solution for 30 min, resulting in the formation of formazan dye proportional to LDH enzyme activity. The absorbance was measured at 490/630 nm using an ELISA reader (Dynex Technologies, Denkendorf, Germany) and cytotoxicity was determined by subtracting the percentage of LDH release under control conditions of those from treated samples. Experiments were performed in duplicate and data are given as mean percentage changes ± SD as compared to controls of n = 3 experiments.

Data set [5] deals with caspase-3 activity of HepG2 cells. Kind of data set: Apoptosis-specific caspase-3 activity. Particulars: 24 h; for caspase-3 activity (in words): HepG2, 1 and 10 µM. The format is cell-based, human. As for the experimental part: Changes in caspase-3 activity were measured by the cleavage of the fluorogenic substrate AC-DEVD-AMC (EMD Millipore, Billerica, MA, USA), as described previously. After 24 h of incubation with 1a, 1b, 1c, 1e and sorafenib (1 and 10 µM) the cells were harvested and lysed with lysis buffer. Subsequently, the lysates were incubated for 1 h at 37 °C with a substrate solution containing 20 μg/mL AC-DEVD-AMC, 20 mM HEPES, 10% glycerol and 2 mM DTT at pH 7.5. Substrate cleavage was measured fluorometrically using a Varioskan Flash Fluorometer (Thermo Fisher Scientific, Waltham, MA, USA; filter sets: ex 360/40 nm, em 460/10 nm). n = 3 independent measurements were performed in triplicate, and data are given as the mean percentage increase ± SD above control, which was set 100%.

Another data set concerns the target T1, CLK1 (Homo sapiens, UniProt P49759).
T1 construct: purchased Eurofins KinaseProfiler service (Eurofins, France)
Description: Enzymatic kinase assay (Eurofins KinaseProfiler). The format is biochemical. To be noted: 10 µM compound, cell-free. The protocol: (§3) The kinase inhibiting potency of compound 1a, 1b and 1c (10 µM) was screened in a cell-free kinase assay, which consisted of a custom panel of 43 human protein kinases for 1c (listed in Figure 5A), as well as a subpanel of six kinases for 1a and 1b (Figure 5B). The initial panel was chosen to screen the lead compound 1c based on the union of two strategies. A total of 29 kinases were selected based on the correlated results of three in silico target prediction methods including structure- as well as ligand-based techniques and 20 kinases because of their relevance for HCC (note that six kinases were part of both strategies).
(§4) The assay was performed by Eurofins KinaseProfilerTM service (Eurofins, France) and the determination of enzymatic activity was assessed as previously described. Additionally, an IC50 determination of compound 1c against the VEGFR-2 was performed with a concentration range of 0.003 to 30 µM.

Another data set addresses T2, VEGFR-2 (KDR) (Homo sapiens, UniProt P35968).
T2 construct: purchased Eurofins KinaseProfiler service (Eurofins, France)
Description: Enzymatic kinase assay (Eurofins KinaseProfiler). In kind it is biochemical. To be noted: 10 µM compound, cell-free. The protocol: as §3, §4

Data set [6] concerns HepG2-tumors grown on membranes of fertilized chicken eggs. Kind of data set: Chorioallantoic membrane (CAM) assay. The format is in vivo. The protocol: The chorioallantoic membrane (CAM) assay was performed as described previously. Fertilized chicken eggs (Gallus gallus) were obtained from commercial sources (Valo GmbH, Germany) and incubated in a humid environment at 38 °C. On day 3 of the egg development, a window was cut in the eggshell to access the developing vascular network of the CAM. At day 10 of chicken embryo development, a sterile silicon ring (10 mm diameter) was placed on the CAM and tumor plugs of 3 × 10^6 HepG2 cells in 20 µL Matrigel (BD Biosciences) with reduced growth factors were placed inside the silicon ring. After 24 h at 38 °C in an incubator, the tumor plaques attached and connected to the (tumor-)feeding CAM microvasculature. Then, the tumor plaques were topically treated with either PBS (negative control) or PBS containing rising concentrations of 1b (0–10 µM), 1c (0–2.5 µM) or sorafenib (10 μM) for 3 days. Tumor growth and viability of the embryo were controlled daily by stereo microscopy. After 72 h of treatment, the tumors were recovered for weighing and pictures were taken using a stereomicroscope equipped with a Kappa digital camera system (Kappa Optronics GmbH, Germany). For data analysis, the tumor weight of 1c-treated and untreated control tumors was determined and the mean weight of treated vs. untreated tumors of 11 eggs for each condition was calculated. Statistical significance evaluated by one-way ANOVA tests.

T2 sequence (P35968 20-1356): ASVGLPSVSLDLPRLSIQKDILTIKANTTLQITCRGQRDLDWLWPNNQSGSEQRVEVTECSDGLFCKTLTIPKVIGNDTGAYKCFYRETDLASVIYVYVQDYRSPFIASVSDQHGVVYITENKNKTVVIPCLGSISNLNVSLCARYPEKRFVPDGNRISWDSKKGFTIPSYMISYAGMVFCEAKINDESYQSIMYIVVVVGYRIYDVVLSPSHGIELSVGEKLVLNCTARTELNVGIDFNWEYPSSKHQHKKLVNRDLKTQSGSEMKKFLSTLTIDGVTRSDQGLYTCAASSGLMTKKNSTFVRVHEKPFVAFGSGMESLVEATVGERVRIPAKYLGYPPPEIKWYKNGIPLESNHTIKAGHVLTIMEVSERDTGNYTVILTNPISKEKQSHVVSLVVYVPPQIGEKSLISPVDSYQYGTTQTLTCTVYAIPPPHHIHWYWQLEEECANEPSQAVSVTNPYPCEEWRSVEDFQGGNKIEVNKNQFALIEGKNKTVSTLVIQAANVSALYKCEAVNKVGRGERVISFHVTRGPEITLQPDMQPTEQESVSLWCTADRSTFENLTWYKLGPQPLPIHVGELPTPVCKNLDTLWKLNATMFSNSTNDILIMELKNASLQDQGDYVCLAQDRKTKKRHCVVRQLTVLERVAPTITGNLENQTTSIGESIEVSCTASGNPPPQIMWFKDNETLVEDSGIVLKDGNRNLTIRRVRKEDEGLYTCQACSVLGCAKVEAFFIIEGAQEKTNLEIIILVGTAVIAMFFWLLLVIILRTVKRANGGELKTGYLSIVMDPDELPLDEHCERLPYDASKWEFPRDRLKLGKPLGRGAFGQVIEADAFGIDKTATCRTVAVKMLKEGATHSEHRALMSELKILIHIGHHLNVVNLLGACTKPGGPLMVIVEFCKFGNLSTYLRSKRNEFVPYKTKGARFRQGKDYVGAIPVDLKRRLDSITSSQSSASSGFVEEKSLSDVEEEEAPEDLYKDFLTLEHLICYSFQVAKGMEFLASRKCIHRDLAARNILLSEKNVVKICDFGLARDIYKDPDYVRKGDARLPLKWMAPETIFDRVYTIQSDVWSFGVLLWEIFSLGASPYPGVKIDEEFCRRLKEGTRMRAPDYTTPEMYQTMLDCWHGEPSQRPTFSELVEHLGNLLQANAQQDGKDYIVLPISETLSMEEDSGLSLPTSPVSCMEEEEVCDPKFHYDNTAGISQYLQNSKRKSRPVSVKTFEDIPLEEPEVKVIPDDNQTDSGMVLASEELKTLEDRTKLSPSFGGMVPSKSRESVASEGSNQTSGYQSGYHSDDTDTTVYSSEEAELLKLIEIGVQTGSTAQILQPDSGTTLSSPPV
T1 sequence (P49759 whole entry): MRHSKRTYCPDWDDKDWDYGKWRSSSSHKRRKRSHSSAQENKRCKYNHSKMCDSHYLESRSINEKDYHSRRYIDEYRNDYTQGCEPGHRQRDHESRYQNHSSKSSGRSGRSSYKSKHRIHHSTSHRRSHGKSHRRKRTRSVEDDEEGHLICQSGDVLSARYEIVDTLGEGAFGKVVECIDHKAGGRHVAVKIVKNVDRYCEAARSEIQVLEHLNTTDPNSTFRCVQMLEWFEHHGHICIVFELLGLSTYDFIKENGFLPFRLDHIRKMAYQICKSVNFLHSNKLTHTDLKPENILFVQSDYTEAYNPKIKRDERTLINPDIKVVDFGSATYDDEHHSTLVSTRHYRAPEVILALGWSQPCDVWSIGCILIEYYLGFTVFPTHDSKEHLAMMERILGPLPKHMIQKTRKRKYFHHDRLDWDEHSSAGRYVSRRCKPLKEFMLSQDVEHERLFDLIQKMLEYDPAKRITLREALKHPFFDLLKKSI

In general, IC50 refers to the concentration needed to halve the response being measured. One may read the inhibition as the drop in the measured response relative to a control, in per cent. A lower inhibition goes with a response near the control. As to `COc1ccc(C=C(C#N)c2cccs2)cc1` [Compound 1a], the IC50 amounted to 1.46 ± 0.21 µM in [1], 1.2 ± 0.42 µM in the data set on human Huh-7 HCC cells and 6.79 ± 0.32 µM in [2]. Further, the “IC50 against AML-12 hepatocytes relative to hepatoma cells” value in [2] is “up to 10 fold”. In addition, the “effect on HepG2 colony formation (in words)” value (“effect” below) in the data set on HepG2 cells [3] is recorded as “significantly inhibited HepG2 colony formation”. Besides, the “LDH release / unspecific cytotoxicity (in words)” value in the data set on HepG2 cells [4] is reported as “do not exert considerable unspecific cytotoxicity”. Besides, the “caspase-3 activity (in words)” value in data set [5] is reported as “dose-dependently induced caspase-3 activity”. This compound displayed an inhibition at 10 µM on CLK1 of 68%. Moreover, at VEGFR-2 (KDR), the “inhibition of VEGFR-2 (KDR)” value was “lacks any activity”.
Consider `CN(C)c1ccc(C=C(C#N)c2cccs2)cc1` [Compound 1b], for which the IC50 in data set [1] amounted to 0.72 ± 0.09 µM; with human Huh-7 HCC cells, 0.67 ± 0.13 µM; in data set [2] it was 2.72 ± 0.78 µM. Further, the “IC50 against AML-12 hepatocytes relative to hepatoma cells” value in data set [2] is on record as “up to 10 fold”. Also, the “effect” value in the data set on HepG2 cells [3] is “significantly inhibited HepG2 colony formation”. Also, the “tumor reduction vs PBS-treated controls (in words)” value in data set [6] (topical treatment 72 h, 1b 0–10 µM, 1c 0–2.5 µM, sorafenib 10 µM) was “pronounced tumor reductions”. In addition, in data set [6] (treated vs untreated eggs), the “tolerability, mortality and development of chicken embryos” value is “well tolerated”. Further, in the data set with HepG2 cells [4], the “LDH release / unspecific cytotoxicity (in words)” value is “do not exert considerable unspecific cytotoxicity”. Also, the “caspase-3 activity compared with the other compounds (in words)” value in [5] (HepG2, 10 µM) is given as “comparably stronger increase in caspase-3 activity than the other compounds”. Moreover, the “caspase-3 activity (in words)” value in [5] was “dose-dependently induced caspase-3 activity”. Besides, at VEGFR-2 (KDR), the inhibition at 10 µM is 86%.
As to `COc1cc(/C=C(\C#N)c2cccs2)ccc1O` [Compound 1d], the IC50 (in [1]; in the data set with human Huh-7 HCC cells) was above 20 µM each time.
For the compound `COc1ccc(C=C(C#N)c2cccs2)cc1C` [Compound 1e, 2-[1-Cyano-2-(3-methyl-4-methoxyphenyl)-(E)-ethenyl)]-thiophene], the IC50 in [1] was 1.3 ± 0.17 µM; with human Huh-7 HCC cells, 1.85 ± 0.21 µM; in data set [2], 14.8 ± 2.39 µM. The “IC50 against AML-12 hepatocytes relative to hepatoma cells” value in data set [2] is recorded as “up to 10 fold”. The “effect” value with HepG2 cells [3] is given as “significantly inhibited HepG2 colony formation”. Besides, the “caspase-3 activity (in words)” value in [5] was “dose-dependently induced caspase-3 activity”.
Regarding `COc1cc(/C=C(\C#N)c2cccs2)ccc1-c1ccccc1Cl` [Compound 1f], the IC50 (in data set [1]; with human Huh-7 HCC cells) was above 20 µM throughout.
`COCCOc1cc(/C=C(\C#N)c2cccs2)ccc1OC` [Compound 1g, 2-[1-Cyano-2-[4-Methoxy-3-(2-methoxyethoxy)phenyl]-(E)-ethenyl}-thiophene]: the IC50 (in data set [1]; with human Huh-7 HCC cells) was above 20 µM throughout.
With `COCCOc1ccc(/C=C(\C#N)c2cccs2)cc1OCCOC` [Compound 1h, 2-{1-Cyano-2-[3,4-bis(2-methoxyethoxy)phenyl]-(E)-ethenyl}-thiophene], the IC50 (in data set [1]; in the data set with human Huh-7 HCC cells) was above 20 µM in each case.
`CN1CCN(c2ccc(/C=C(\C#N)c3cccs3)cc2)CC1` [Compound 1i, 2-[1-Cyano-2-(4-N-methylpiperazin-1-ylphenyl)-(E)-ethenyl]-thiophene]: the IC50 is 9.3 ± 0.82 µM in [1], 11.8 ± 0.56 µM with human Huh-7 HCC cells and 20.5 ± 1.25 µM in [2].
Regarding `COc1ccc(/C=C(\C#N)c2cccs2)cc1F` [Compound 1j, 2-[1-Cyano-2-(3-fluoro-4-methoxyphenyl)-(E)-ethenyl]-thiophene], the IC50 amounted to 4.9 ± 1.54 µM in data set [1], 5.7 ± 1.2 µM in the data set with human Huh-7 HCC cells and 9.42 ± 0.91 µM in data set [2].
Take `COCCOc1ccc(/C=C(\C#N)c2cccs2)cc1F` [Compound 1k, 2-{1-Cyano-2-[3-fluoro-4-(2-methoxyethoxy)phenyl]-(E)-ethenyl}-thiophene]: the IC50 (in [1]; with human Huh-7 HCC cells) was above 20 µM throughout.
With `COc1ccc(/C=C(\C#N)c2cccs2)cc1Br` [Compound 1l, 2-[1-Cyano-2-(3-bromo-4-methoxyphenyl)-(E)-ethenyl]-thiophene], in data set [1], the IC50 came to 13.9 ± 1.16 µM.
Turning to `N#C/C(=C\c1cccc(O)c1)c1cccs1` [Compound 1m, 2-[1-Cyano-2-(3-hydroxyphenyl)-(E)-ethenyl]-thiophene], the IC50 (in data set [1]; with human Huh-7 HCC cells) was above 20 µM each time.
In the case of `COc1ccc(/C=C(\C#N)c2cccs2)cc1OCCCN1CCOCC1` [Compound 1n, 2-{1-Cyano-2-[4-methoxy-3-(3-morpholinopropoxy)phenyl]-(E)-ethenyl}-thiophene], the IC50 (in data set [1]; in the data set on human Huh-7 HCC cells) was above 20 µM in each case.
In the case of `Cn1ccc2cc(/C=C(\C#N)c3cccs3)ccc21` [Compound 1o, 2-{1-Cyano-2-[N-methylindol-5-yl]-(E)-ethenyl}-thiophene], the IC50 (in data set [1]; in the data set on human Huh-7 HCC cells) was above 20 µM each time.
On to `COc1ccc(C=C(C#N)c2cccnc2)cc1O` [Compound 2, reference compound], for which, in [1], the IC50 is 6.26 ± 1.18 µM.
